Measured values published in patent publication US20230183712A1, “METHODS FOR E[…] ACID AMMONIA LYASE ENZYMES AND ENZYMES THEREBY OBTAINED” (priority 2020, published 2023).

How the values were obtained:
[1] = molecular target: T1, Anabaena variabilis phenylalanine ammonia-lyase (DM-rAvPAL/AvPAL*; C503S and C565S, SEQ ID NO:2) variant L4P/G218S (Trichormus variabilis, UniProt Q3M5Z3, C503S/C565S/G218S/L4P); assay: Enzyme kinetics: production of tCA from phe (Michaelis-Menten), mutant L4P/G218S; assay type: biochemical; details: relative to parental AvPAL*; phe 35 μM to 17.5 mM, PBS pH 7.4, 37° C.; FIG. 4a
T1 construct: His-tag (N); made in house; host or cells: E. coli MG1655 rph+
T1 sequence (Q3M5Z3 whole entry L4P/G218S/C503S/C565S, looked up): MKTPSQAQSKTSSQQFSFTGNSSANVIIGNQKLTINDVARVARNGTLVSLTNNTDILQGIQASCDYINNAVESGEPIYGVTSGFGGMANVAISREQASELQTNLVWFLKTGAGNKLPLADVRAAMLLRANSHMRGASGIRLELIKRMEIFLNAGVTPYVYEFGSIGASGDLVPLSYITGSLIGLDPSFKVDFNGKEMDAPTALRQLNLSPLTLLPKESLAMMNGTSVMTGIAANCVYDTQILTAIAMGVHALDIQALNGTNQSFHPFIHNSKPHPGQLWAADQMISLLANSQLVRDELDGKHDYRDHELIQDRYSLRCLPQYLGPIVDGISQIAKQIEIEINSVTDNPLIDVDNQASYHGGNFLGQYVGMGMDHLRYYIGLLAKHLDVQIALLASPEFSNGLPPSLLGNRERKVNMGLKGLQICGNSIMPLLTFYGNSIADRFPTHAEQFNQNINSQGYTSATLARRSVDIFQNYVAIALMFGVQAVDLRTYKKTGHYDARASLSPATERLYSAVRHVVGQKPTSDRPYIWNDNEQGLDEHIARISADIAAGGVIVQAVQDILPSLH
Procedure: (§1) Enzyme activity assays. The activity of all AvPAL constructs was measured by production of tCA over time. Cultures were sonicated on ice using a Sonifier SFX 150 (Branson Ultrasonics, Danbury, Conn.) (2 s on; 10 s off; 4 min; 55%), and debris was separated from the lysate by centrifuging at 10,000×g for 10 min. Ten microliters of lysate were then mixed with 190 μL of pre-warmed 50 mM phe (Tokyo Chemical Industry, Portland, Oreg.) in phosphate buffered saline (PBS) (137 mM NaCl, 2.7 mM KCl, 10 mM Na2HPO4, 2 mM KH2PO4, pH 7.4) in a 96-well F-bottom UVStar (Greiner Bio-One, Kremsmünster, Austria) microtiter plate. Absorbance at 290 nm was measured every 30 s at 37° C. using a SpectraMax M3 (Molecular Devices) plate reader.
(§2) Each construct included a N-term His-tag used for immobilized metal affinity chromatography (IMAC) purification. Briefly, overnight cell cultures were sonicated in 3 mL Equilibration buffer (300 mM NaCl, 50 mM NaH2PO4, 10 mM imidazole, 15% (w/v) glycerol, pH 8.0). The lysate was loaded onto a prepared column with 2 mL TALON Metal Affinity Resin (Clontech Laboratories, Inc., Mountain View, Calif.). […] Protein concentration was measured by Bradford method using bovine serum albumin (BSA) as the standard.
(§3) Enzyme kinetics. […] The activity of 0.1 μg of protein was measured by the production of tCA over 10 min by recording the absorbance of the reaction mix at 290 nm. […]

[2] = molecular target: T2, Anabaena variabilis phenylalanine ammonia-lyase (DM-rAvPAL/AvPAL*; C503S and C565S, SEQ ID NO:2) variant M222L (Trichormus variabilis, UniProt Q3M5Z3, C503S/C565S/M222L); assay: Enzyme kinetics: production of tCA from phe (Michaelis-Menten), mutant M222L; assay type: biochemical; details: PBS pH 7.4, 37° C.
T2 construct: His-tag (N); made in house; host or cells: E. coli MG1655 rph+
T2 sequence (Q3M5Z3 whole entry M222L/C503S/C565S, looked up): as the sequence (Q3M5Z3 whole entry L4P/G218S/C503S/C565S, looked up) above, with P4L, S218G, M222L counted along it
Procedure: as §1, §2, §3

[3] = system: E. coli; assay: Growth of E. coli in media supplemented with tCA; assay type: cell-based, Escherichia coli; details: MM^full,opt, 1.5 mM tCA
Procedure: Microbial strains, plasmids, and growth conditions. All Escherichia coli strains were cultured in lysogeny broth (LB) (VWR International, Randor, Pa.) at 37° C. with rotary shaking at 250 rpm. All media was solidified using 1.5% (w/v) agar (Teknova Inc, Hollister, Calif.). Minimal media (MM) conditions are described in the “Optimization of growth-coupled enrichment” section below. E. coli DH5a was used as a host for the construction of the expression vectors and cultured as above only supplemented with chloramphenicol (25 μg/mL) (RPI Corp). Initial expression in MM was performed in E. coli MG1655(DE3)^ΔendA,ΔrecA and later moved to E. coli MG1655^rph+ for final experiments.
Optimization of growth-coupled enrichment. Growth was measured by seeding cultures at OD600 0.05 and monitoring cell density over time. Initial experiments used a base nitrogen-deficient minimal media (MM^N-) (33.7 mM Na2HPO4, 22 mM KH2PO4, 8.55 mM NaCl, 1 mM MgSO4, 0.1 mM CaCl2), 10 μM FeSO4, 0.4% (v/v) glycerol, 10 μg/mL thiamine, 20 μM IPTG, 12.5 μg/mL chloramphenicol, pH 7.4) that was supplemented with 9.35 mM phe (MM^phe,init) or 9.35 mM NH4Cl) Variable conditions were changed across the parameters outlined in FIG. 2, as well as moving to a more favorable strain for growth in minimal media. […]

`N[C@@H](Cc1ccccc1)C(=O)O` [phe, phenylalanine] was tested, and the “KM (fold higher than parent)” value [1] was about 2.5 ×, the “kcat (increase over parental AvPAL*)” value [1] was 70-80% and the “catalytic efficiency (relative to AvPAL*)” value ([2]; compared to AvPAL*) was “improved catalytic efficiency”. The “kcat (increase over parental AvPAL*)” value ([2]; relative to parental AvPAL*, phe 35 μM to 17.5 mM, FIG. 4a) was 70-80%.

With `O=C(O)/C=C/c1ccccc1` [tCA, trans-cinnamic acid] the “growth of cells supplemented with tCA” value [3] was “impaired growth”.
